Reference: ChEMBL document CHEMBL4270577, “Synthesis, anticancer activity and molecular modeling studies of 1,2,4-triazole derivatives as EGFR inhibitors” (Eur J Med Chem, 2018)

Tests used:
CCRF-CEM = test: Cytotoxicity against human CCRF-CEM cells incubated for 48 hrs by sulforhodamine B assay; format: functional
HL-60(TB) = test: Cytotoxicity against human HL-60(TB) cells incubated for 48 hrs by sulforhodamine B assay; format: functional; settings: HL-60, 48 h
RPMI-8226 = test: Cytotoxicity against human RPMI8226 cells incubated for 48 hrs by sulforhodamine B assay; format: functional; settings: RPMI-8226, 48 h
HOP-62 = test: Cytotoxicity against human HOP62 cells incubated for 48 hrs by sulforhodamine B assay; format: functional; settings: HOP-62, 48 h
HOP-92 = test: Cytotoxicity against human HOP92 cells incubated for 48 hrs by sulforhodamine B assay; format: functional; settings: HOP-92, 48 h
NCI-H226 = test: Cytotoxicity against human NCI-H226 cells incubated for 48 hrs by sulforhodamine B assay; format: functional; settings: NCI-H226, 48 h
NCI-H23 = test: Cytotoxicity against human NCI-H23 cells incubated for 48 hrs by sulforhodamine B assay; format: functional; settings: NCI-H23, 48 h
HCC 2998 = test: Cytotoxicity against human HCC2998 cells incubated for 48 hrs by sulforhodamine B assay; format: functional; settings: HCC 2998, 48 h
HT-29 = test: Cytotoxicity against human HT-29 cells incubated for 48 hrs by sulforhodamine B assay; format: functional; settings: HT-29, 48 h
KM12 = test: Cytotoxicity against human KM12 cells incubated for 48 hrs by sulforhodamine B assay; format: functional; settings: KM12, 48 h
SF-268 = test: Cytotoxicity against human SF268 cells incubated for 48 hrs by sulforhodamine B assay; format: functional; settings: SF-268, 48 h
SF-295 = test: Cytotoxicity against human SF295 cells incubated for 48 hrs by sulforhodamine B assay; format: functional; settings: SF-295, 48 h
U-251 = test: Cytotoxicity against human U251 cells incubated for 48 hrs by sulforhodamine B assay; format: functional; settings: U-251, 48 h
Malme-3M = test: Cytotoxicity against human MALME-3M cells incubated for 48 hrs by sulforhodamine B assay; format: functional
M14 = test: Cytotoxicity against human M14 cells incubated for 48 hrs by sulforhodamine B assay; format: functional; settings: M14, 48 h
SK-MEL-5 = test: Cytotoxicity against human SK-MEL-5 cells incubated for 48 hrs by sulforhodamine B assay; format: functional; settings: SK-MEL-5, 48 h
OVCAR-4 = test: Cytotoxicity against human OVCAR4 cells incubated for 48 hrs by sulforhodamine B assay; format: functional; settings: OVCAR-4, 48 h
NCI/ADR-RES = test: Cytotoxicity against human NCI/ADR-RES cells incubated for 48 hrs by sulforhodamine B assay; format: functional
SK-OV-3 = test: Cytotoxicity against human SKOV3 cells incubated for 48 hrs by sulforhodamine B assay; format: functional; settings: SK-OV-3, 48 h
UO-31 = test: Cytotoxicity against human UO31 cells incubated for 48 hrs by sulforhodamine B assay; format: functional; settings: UO-31, 48 h
MDA-MB-231 = test: Cytotoxicity against human MDA-MB-231 cells incubated for 48 hrs by sulforhodamine B assay; format: functional; settings: MDA-MB-231, 48 h
Hs-578T = test: Cytotoxicity against human Hs 578T cells incubated for 48 hrs by sulforhodamine B assay; format: functional
BT-549 = test: Cytotoxicity against human BT549 cells incubated for 48 hrs by sulforhodamine B assay; format: functional; settings: BT-549, 48 h
MDA-MB-468 = test: Cytotoxicity against human MDA-MB-468 cells incubated for 48 hrs by sulforhodamine B assay; format: functional; settings: MDA-MB-468, 48 h
[1] = biological target: Serine/threonine-protein kinase B-raf (Mus musculus, UniProt P28028, V600E); test: Inhibition of mouse full length GST-tagged BRAF V600E mutant using recombinant human His6-tagged MEK1 as substrate preincubated for 1 hr followed by substrate addition measured after 25 mins by ELISA
Sequence of Serine/threonine-protein kinase B-raf (P28028 whole entry, looked up, stated change not applied): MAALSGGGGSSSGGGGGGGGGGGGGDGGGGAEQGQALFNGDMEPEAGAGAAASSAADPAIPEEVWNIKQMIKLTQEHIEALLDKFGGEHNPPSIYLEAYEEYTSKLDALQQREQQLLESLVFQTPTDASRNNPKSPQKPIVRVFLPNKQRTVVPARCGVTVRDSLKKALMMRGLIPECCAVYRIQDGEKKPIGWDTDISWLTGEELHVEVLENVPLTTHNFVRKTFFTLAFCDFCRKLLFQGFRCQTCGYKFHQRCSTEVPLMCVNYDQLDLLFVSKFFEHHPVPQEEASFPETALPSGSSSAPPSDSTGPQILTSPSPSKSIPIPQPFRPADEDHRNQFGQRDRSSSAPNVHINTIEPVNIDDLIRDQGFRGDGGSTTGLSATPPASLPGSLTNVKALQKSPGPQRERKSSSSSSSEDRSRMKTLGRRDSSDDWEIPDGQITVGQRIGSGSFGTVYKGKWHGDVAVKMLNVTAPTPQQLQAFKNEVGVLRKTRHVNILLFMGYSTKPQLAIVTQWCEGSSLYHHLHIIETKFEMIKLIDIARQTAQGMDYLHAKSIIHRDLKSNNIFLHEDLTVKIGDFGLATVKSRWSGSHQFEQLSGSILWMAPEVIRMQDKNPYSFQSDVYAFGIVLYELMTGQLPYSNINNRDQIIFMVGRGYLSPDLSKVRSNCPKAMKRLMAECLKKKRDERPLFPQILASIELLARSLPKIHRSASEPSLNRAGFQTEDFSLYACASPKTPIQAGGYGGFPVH

A549 [2] = test: Induction of apoptosis in human A549 cells assessed as late apoptotic cells at 1.4 uM after 24 hrs by Annexin V/propidium iodide staining based flow cytometric analysis (reference value: 0.08%); format: functional
A549 [3] = test: Induction of apoptosis in human A549 cells assessed as necrotic cells at 1.4 uM after 24 hrs by Annexin V/propidium iodide staining based flow cytometric analysis (reference value: 0.09%); format: functional
A549 [4] = test: Cell cycle arrest in human A549 cells assessed as accumulation at S phase at 1.4 uM after 24 hrs by propidium iodide staining based flow cytometry (reference value: 27.9%); format: functional
[5] = read-out: LC50 (the source's name)

SMILES: COc1ccc(-c2nc3sc(-c4ccc(Cl)cc4)cn3n2)cc1
- GI50 (CCRF-CEM): > 50 µM
- TGI (CCRF-CEM): > 50 µM
- CC50 (CCRF-CEM; [5]): > 50 µM
- GI50 (HL-60(TB)): > 50 µM
- TGI (HL-60(TB)): > 50 µM
- CC50 (HL-60(TB); [5]): > 50 µM
- GI50 (RPMI-8226): 3.67 µM
- TGI (RPMI-8226): > 50 µM
- CC50 (RPMI-8226; [5]): > 50 µM
- GI50 (HOP-62): 2.36 µM
- TGI (HOP-62): > 50 µM
- CC50 (HOP-62; [5]): > 50 µM
- GI50 (HOP-92): 0.91 µM
- TGI (HOP-92): 7.61 µM
- CC50 (HOP-92; [5]): > 50 µM
- GI50 (NCI-H226): 11.1 µM
- TGI (NCI-H226): > 50 µM
- CC50 (NCI-H226; [5]): > 50 µM
- GI50 (NCI-H23): 6.66 µM
- TGI (NCI-H23): > 50 µM
- CC50 (NCI-H23; [5]): > 50 µM
- GI50 (HCC 2998): > 50 µM
- TGI (HCC 2998): > 50 µM
- CC50 (HCC 2998; [5]): 39.4 µM
- GI50 (HT-29): 2.96 µM
- TGI (HT-29): > 50 µM
- CC50 (HT-29; [5]): > 50 µM
- GI50 (KM12): 12.2 µM
- TGI (KM12): > 50 µM
- CC50 (KM12; [5]): > 50 µM
- GI50 (SF-268): 48 µM
- TGI (SF-268): > 50 µM
- CC50 (SF-268; [5]): > 50 µM
- GI50 (SF-295): 2.81 µM
- TGI (SF-295): 31.8 µM
- CC50 (SF-295; [5]): > 50 µM
- GI50 (U-251): 1.03 µM
- TGI (U-251): 2.29 µM
- CC50 (U-251; [5]): 5.53 µM
- GI50 (Malme-3M): 2.71 µM
- TGI (Malme-3M): > 50 µM
- CC50 (Malme-3M; [5]): > 50 µM
- GI50 (M14): > 50 µM
- TGI (M14): > 50 µM
- CC50 (M14; [5]): > 50 µM
- GI50 (SK-MEL-5): 14 µM
- TGI (SK-MEL-5): > 50 µM
- CC50 (SK-MEL-5; [5]): > 50 µM
- GI50 (OVCAR-4): 0.766 µM
- TGI (OVCAR-4): 1.63 µM
- CC50 (OVCAR-4; [5]): 3.45 µM
- GI50 (NCI/ADR-RES): 3.75 µM
- TGI (NCI/ADR-RES): > 50 µM
- CC50 (NCI/ADR-RES; [5]): > 50 µM
- GI50 (SK-OV-3): 11.7 µM
- TGI (SK-OV-3): > 50 µM
- CC50 (SK-OV-3; [5]): > 50 µM
- GI50 (UO-31): 1.19 µM
- TGI (UO-31): 4.51 µM
- CC50 (UO-31; [5]): 30.6 µM
- GI50 (MDA-MB-231): 2.06 µM
- TGI (MDA-MB-231): 16.7 µM
- CC50 (MDA-MB-231; [5]): > 50 µM
- GI50 (Hs-578T): 2.31 µM
- TGI (Hs-578T): > 50 µM
- CC50 (Hs-578T; [5]): > 50 µM
- GI50 (BT-549): 43.2 µM
- TGI (BT-549): > 50 µM
- CC50 (BT-549; [5]): > 50 µM
- GI50 (MDA-MB-468): 2.08 µM
- TGI (MDA-MB-468): > 50 µM
- CC50 (MDA-MB-468; [5]): > 50 µM
- IC50 [1]: 4.7 µM
- Activity (A549 [2]): 4.62%
- Activity (A549 [3]): 1.34%
- Activity (A549 [4]): 17.34%
